Patent US20200315933A1, “USE OF CANNABIDIOL OR CANNABIS EXTRACT IN PREPARATION OF SKIN WHITENING PRODUCTS” (HANYI BIO-TECHNOLOGY COMPANY LTD., priority 2017, published 2020)

What was measured:
Format in all cases: cell-based
B16 cells = assay: Determination of melanin content in B16 cells; settings: positive control 33 mM
Protocol: B16 cells in good state at a logarithmic phase were collected, trypsin was adopted for digestion, the digestion was terminated with a complete medium, and counting was performed; the prepared cell suspension was adjusted to 5×10^4 cells/ml and added into a 6-well culture plate, 2 ml of cell suspension was added into each well, cultivation was performed in an incubator at 37° C. and with 5% CO2 overnight; the medium was drawn out, 2 ml of cannabis extracts with different concentrations were added into each well, after action of 48 hours, the medium was drawn out and abandoned, trypsin was adopted for digestion, and the product was collected into a centrifugal tube, centrifugation was performed to obtain a cell precipitate, the cell precipitate was washed with PBS for one time, a 1M NaOH (containing 10% DMSO) solution was added for cell lysis, and the lysed cells were put in a 80° C. water bath kettle for water bath for 30 minutes; uniform shaking and mixing were performed, and the processed cells were drawn into to a 96-well plate; and the absorbance value was determined at the wavelength of 245 nm.
Relative melanin content=(mean absorbance value in each well under every concentration−mean absorbance value in the control group)[…].

[1] = system: human immortalized epidermal cells; assay: Cytotoxicity test (MTT) of human immortalized epidermal cells; settings: samples containing cannabis seed oil
Protocol: Human immortalized epidermal cells at a logarithmic phase were collected, the concentration of the cell suspension was adjusted, the cell suspension was added to a 96-well plate at 100 μl per well, incubation was performed at 37° C. and with 5% CO2 to reach a cell density of 5000 cells/well. The solution was changed and the experimental samples at different concentration gradients were added (as the following Table 4), a culture solution containing no experiment sample was used as the control. Incubation was performed with 5% CO2 and at 37° C. for 24 hours, 20 μl of MTT solution (5 mg/ml, i.e. 0.5% MTT) was added into each well, the cultivation was continued for four hours. The drug reacted with MTT sufficiently, firstly centrifugation was performed, then the culture solution was abandoned, and rinsing was performed with PBS carefully for 2-3 times, then a culture solution containing MTT was added. The cultivation was terminated, the culture solution in the well were drawn off carefully. […] The absorbance values of each well were measured in an enzyme linked immunosorbent detector at OD value of 490 nm.
Cell survival rate=(determined well OD value−blank control OD value)/(OD value in the cell comparative group−OD value in the blank control)×100%.

tyrosinase = biological target: T1, tyrosinase (Mus musculus, UniProt P11344); assay: Determination of tyrosinase inhibition rate in B16 cells; settings: action of 72 hours, inhibition rate increased with amount
T1 construct: endogenous in cells; host or cells: B16 cells
T1 sequence (P11344 19-533): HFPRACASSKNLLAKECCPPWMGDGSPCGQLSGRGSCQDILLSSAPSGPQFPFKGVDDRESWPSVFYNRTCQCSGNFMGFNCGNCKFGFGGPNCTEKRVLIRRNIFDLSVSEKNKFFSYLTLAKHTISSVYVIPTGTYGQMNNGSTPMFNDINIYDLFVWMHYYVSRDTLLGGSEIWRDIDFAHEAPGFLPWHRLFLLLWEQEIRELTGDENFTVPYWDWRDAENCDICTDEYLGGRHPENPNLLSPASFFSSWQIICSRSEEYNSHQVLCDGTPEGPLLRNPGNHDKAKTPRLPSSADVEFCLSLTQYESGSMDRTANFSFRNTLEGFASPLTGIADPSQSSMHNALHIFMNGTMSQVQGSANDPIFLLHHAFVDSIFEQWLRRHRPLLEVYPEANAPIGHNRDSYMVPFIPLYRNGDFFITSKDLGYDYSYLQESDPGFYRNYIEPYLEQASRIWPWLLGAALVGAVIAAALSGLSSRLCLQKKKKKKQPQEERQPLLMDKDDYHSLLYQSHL
Protocol: B16 cells at a logarithmic phase were collected, trypsin was adopted for digestion, the digestion was terminated with a complete medium (DMEM high sugar medium+10% fetal calf serum), counting was performed; the cell suspension was adjusted to 10×10^4 cells/mL, and inoculated into a 96-well culture plate, each well was added with 100 μl of cell suspension, the marginal wells were filled with sterile PBS, and cultivated in an incubator at 37° C. and with 5% CO2 overnight, the medium (DMEM high sugar medium+10% fetal calf serum) was drawn out, 100 μl of the experiment sample was added into each well, and a control group (namely, the well without the sample but with only medium) was set. After action of 72 hours, 50 μl of 1% TritionX-100 solution was added for cell lysis, quickly put into an ultra-low temperature freezer at −80° C. and cryopreserved for one hour, subsequently the cryopreserved solution was thawed at room temperature, such that tyrosinase within the cells were released outside the cells, pre-warming was performed to 37° C., then 50 μl of 1% levodopa solution was added to produce a mixture, the mixture was reacted at 37° C. for 2 hours, the absorbance value in each well was determined at the wavelength of 490 nm, for every sample concentration, more than 3 subwells were set, and averaged. […]

Structure (SMILES) | melanin content within the B16 cells (B16 cells) [%] | cell proliferation (eliminating the influence of the cannabis seed oil) [1] | inhibitory effect against tyrosinase (inhibition rate) (tyrosinase)
OC[C@H]1O[C@@H](Oc2ccc(O)cc2)[C@H](O)[C@@H](O)[C@@H]1O [arbutin, Arbutin] | 79.24 | – | –
C=C(C)[C@@H]1CCC(C)=C[C@H]1c1c(O)cc(CCCCC)cc1O [CBD, Cannabidiol] | – | promote cell proliferation to a certain extent | effective inhibitory effect against tyrosinase
